Assay results: US20090044291A1, “DROUGHT-RESISTANT PLANTS AND METHOD FOR PRODUCING THE PLANTS” (D-Helix, priority 2006, published 2009)
“Also recorded” adds a separate entry of the source.

Tests used:
[1] = molecular target: T1, Mg-chelatase (Arabidopsis thaliana, UniProt Q9FNB0); experiment: Effects of ABA on Mg-chelatase activity in isolated chloroplasts; type: biochemical; conditions: chloroplasts pre-incubated 20 min with (±)-ABA
T1 construct: isolation of intact chloroplasts from 3-week-old gl1 plants; from tissue; host or cells: intact chloroplasts from 3-week-old Arabidopsis gl1 plants
T1 sequence (Q9FNB0 50-1381): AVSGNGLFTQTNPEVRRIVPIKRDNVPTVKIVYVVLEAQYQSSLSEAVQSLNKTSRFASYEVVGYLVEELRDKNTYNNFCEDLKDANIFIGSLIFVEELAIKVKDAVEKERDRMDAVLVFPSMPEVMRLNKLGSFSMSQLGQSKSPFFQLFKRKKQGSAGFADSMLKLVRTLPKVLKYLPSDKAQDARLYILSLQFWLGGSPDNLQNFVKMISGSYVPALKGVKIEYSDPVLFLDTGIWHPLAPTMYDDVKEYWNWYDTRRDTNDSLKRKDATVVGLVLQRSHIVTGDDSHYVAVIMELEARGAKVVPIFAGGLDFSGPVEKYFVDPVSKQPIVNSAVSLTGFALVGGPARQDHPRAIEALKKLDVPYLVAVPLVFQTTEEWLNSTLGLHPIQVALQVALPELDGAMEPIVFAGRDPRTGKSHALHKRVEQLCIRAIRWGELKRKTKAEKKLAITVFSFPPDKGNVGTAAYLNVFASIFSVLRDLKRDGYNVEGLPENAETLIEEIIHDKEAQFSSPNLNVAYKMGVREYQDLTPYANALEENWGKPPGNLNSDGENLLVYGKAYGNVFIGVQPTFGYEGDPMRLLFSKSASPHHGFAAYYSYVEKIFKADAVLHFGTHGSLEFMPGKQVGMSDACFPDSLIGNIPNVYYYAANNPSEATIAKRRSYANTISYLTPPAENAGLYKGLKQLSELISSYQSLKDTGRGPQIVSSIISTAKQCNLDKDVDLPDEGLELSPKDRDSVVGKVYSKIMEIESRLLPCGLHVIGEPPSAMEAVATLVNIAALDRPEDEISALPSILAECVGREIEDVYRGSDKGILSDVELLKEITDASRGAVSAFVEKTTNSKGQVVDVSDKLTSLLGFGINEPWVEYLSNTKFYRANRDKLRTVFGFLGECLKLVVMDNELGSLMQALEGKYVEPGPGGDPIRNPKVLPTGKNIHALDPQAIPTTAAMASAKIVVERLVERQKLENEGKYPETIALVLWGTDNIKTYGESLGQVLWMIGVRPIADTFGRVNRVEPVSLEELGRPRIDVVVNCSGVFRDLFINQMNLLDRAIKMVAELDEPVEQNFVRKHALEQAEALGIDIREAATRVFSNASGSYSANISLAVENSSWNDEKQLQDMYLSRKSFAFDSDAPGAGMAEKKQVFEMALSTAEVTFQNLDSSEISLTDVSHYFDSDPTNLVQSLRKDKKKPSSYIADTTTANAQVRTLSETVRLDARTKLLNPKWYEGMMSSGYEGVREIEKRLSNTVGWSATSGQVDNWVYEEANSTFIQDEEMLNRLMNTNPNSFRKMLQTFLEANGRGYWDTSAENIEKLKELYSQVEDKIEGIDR
Experimental: For the effects of ABA on Mg-chelatase activity in vitro, isolation of intact chloroplasts from 3-week-old gl1 plants and assays of both […] and Mg-chelatase activity were done essentially according to the method of Walker and Weinstein (Walker, C. J. et al., Plant Physiol. 95:1189-1196 (1991); Walker, C. J. et al., Proc. Natl. Acad. Sci. USA 88:5789-5793 (1991)). Briefly, the purified chloroplasts with high degree of intactness were pre-incubated for 20 min in the chloroplast isolation buffer supplemented with different concentrations of (±)-ABA. For assaying Mg-chelatase activity, reactions were started by addition of the ABA-pretreated plastids and terminated by addition of ice-cold acetone. All the manipulations were performed under dim light to prevent porphyrin-mediated photooxidative damage. After centrifugation, the green supernatant was reserved and diluted with 4 ml of 75% (v/v) acetone. The fluorescence of the product was read directly in this acetone extract.

[2] = test system: C-terminal portion of the broad bean ABAR or CHLH; experiment: ABA binding to yeast-expressed C-terminal fragment of broad bean ABAR; set-up: species or system Vicia faba; conditions: data not shown
Description: So we designated it ABAR (for putative abscisic acid receptor). On the basis of the sequencing information, we isolated from broad bean leaves a complementary DNA fragment encoding the carboxy-terminal half of about 770 amino acids of the putative H subunit (CHLH) of the magnesium-protoporphyrin-IX chelatase (Mg-chelatase). CHLH has been reported to have multiple functions in plant cells. In addition to its enzymatic functions as a subunit of the Mg-chelatase in producing photosynthetic apparatus (Walker, C. J. et al., Biochem. J. 327:321-333 (1997)), CHLH has a key function in mediating plastid-to-nucleus signaling (Mochizuki, N. et al., Proc. Natl. Acad. Sci. USA 98:2053-2058 (2001); Surpin, M., et al., Plant Cell S327-S338 (2002); Strand, A., et al., Nature 421:79-83 (2003); Nott, A. et al., Annu. Rev. Plant Biol. 57:730-759 (2006)). […] The information from Vicia faba led us to analyse the functions of ABAR in ABA signalling in Arabidopsis thaliana.

[3] = molecular target: T2, ABAR (Arabidopsis thaliana, UniProt Q9FNB0); experiment: Preliminary ABA binding experiment with transgenic yeast extracts expressing ABAR cDNA
T2 construct: 6xHis; made in house; host or cells: transgenic yeast (Pichia methanolica), cell-free protein extracts

CC1=CC(=O)CC(C)(C)C1(O)/C=C/C(C)=C\C(=O)O (stereo not drawn) [ABA, abscisic acid]
Mg-chelatase activity [1]: stimulated; also recorded: enhances
ABA binding [2]: binds ABA specifically
Kd [3]: 36 nM
